Converted amounts (≈) assume the structure as drawn.
What was measured:
[1] = tested on: isolated strips of guinea pig lung; experiment: Antagonism of PAF-induced contraction of isolated strips of guinea pig lung; details: Cavia porcellus; agonist PAF; read-out: Anticontractile effect (lung), concentration range corresponding to the IC50 value
Description: (§1) The test was based on the same principle as the test indicated in Pharmacological Test 5; however, strips of lung were used in this case.
(§2) The guinea pig was sacrificed under anesthesia with laughing gas. The entire lung tract was cut out starting from the trachea. The lobes of the lungs were cut in circular fashion to produce strips about 3 mm wide. The strips of the upper lobes were divided up in order to obtain a total of six strips of approximately equal size. The strips were suspended in the organ baths under a preload of 4 g. Modified Krebs-Henseleit solutions were used as nutrient solution. When platelet activating factor (PAF) was used as agonist, the composition of this solution corresponded to that for the agonist SP in Pharmacological Test 5; a Krebs-Henseleit solution as in the case of the agonist KCI (Pharm. Test 5) was used for the agonist LTD4. 95% by volume 02, 5% by volume CO2 was bubbled through the bath, and the bath temperature was 37° C. The test is carried out by a therapeutic/cumulative method with dose levels of 1, 3, 6 and 10 μg/ml.
(§3) The test animals, organ bath, vehicle, mode of administration corresponded to that stated for Pharmacological Test 5.

[2] = tested on: isolated strips of guinea pig lung; experiment: Antagonism of LTD4-induced contraction of isolated strips of guinea pig lung; details: Cavia porcellus; agonist LTD4; read-out: Anticontractile effect (lung), concentration range corresponding to the IC50 value
Description: as §1, §2, §3

[3] = tested on: isolated guinea pig trachea; experiment: Antagonism of PGF2α-induced contraction of the isolated guinea pig trachea; details: Cavia porcellus; agonist PGF2α; read-out: Anticontractile effect (trachea), concentration range needed to bring about a dilatation corresponding to the ED50 range
Description: (§4) The compounds according to the invention are used as antagonists of the contraction of various parts of organs, in this case the isolated guinea pig trachea. The agonists used were KCl, PGF2a, calcium ionophore A23187 and substance P:
Inhibition of contractions induced by this cyclooxygenase product is possible only by competitive antagonism at the receptor or of the downstream signal pathway.
(§5) The guinea pigs were sacrificed by lethal anesthesia with laughing gas. The trachea was dissected out over its entire length and cut into 15 individual cartilage rings. In each case five rings were connected together to form a chain and fixed in an organ bath under a preload of 3 g. After an equilibration period of 45 minutes, a contraction was induced with the agonist. Cumulative addition of the antagonist (test product) took place at the plateau 5 of the maximum. Evaluation took place as % change in strength based on the maximum contraction. The test was carried out at 37° C., and the physiological nutrient solution used was a modified Krebs-Henseleit solution through which 95% by volume 02 and 5% by volume CO2 was bubbled.
(§6) Test animals: Albino guinea pigs (102), weight: 200 to 300 g, male or female
(§7) Composition of the organ bath (nutrient solution):
(§8) Vehicle: Double-distilled water, ethanol or isopropanol; Administration: into the organ bath Number of administrations: cumulative, single doses for SP

[4] = tested on: isolated guinea pig trachea; experiment: Antagonism of KCl-induced contraction of the isolated guinea pig trachea; details: Cavia porcellus; agonist KCl; read-out: Anticontractile effect (trachea), concentration range needed to bring about a dilatation corresponding to the ED50 range
Description: as §4
Products with a non-specific effect generally show a spasmolytic effect with respect to all agonists. KCI is representative here of non-specific, receptor-independent contraction because KCl-induced contractions are produced predominantly physically, that is to say by increasing the K+ concentration in the outside medium, and change the resting potential of the cell.
as §5, §6, §7, §8

[5] = tested on: isolated guinea pig trachea; experiment: Antagonism of substance P-induced contraction of the isolated guinea pig trachea; details: Cavia porcellus; agonist substance P; read-out: Anticontractile effect (trachea), concentration range needed to bring about a dilatation corresponding to the ED50 range
Description: as §4
Antagonism is possible on the one hand by specific receptor antagonists, and on the other hand by inhibition of the downstream signal pathway.
as §5, §6, §7, §8

matrix metalloproteases = experiment: Inhibition of matrix metalloproteases (MMP from rabbit synoviocytes HIG-82, fluorescent substrate); type: biochemical
Procedure: After confluent cell growth, the MMP expression was induced in the serum-free 3F12 HAM medium by adding 0.3 μmol/l phorbol 12-myristate 13-acetate. The supernatant was removed after incubating at 37° C. for 20 hours.
Activation of the MMP: The supernatant was activated with trypsin (5 μg/ml). After 15 minutes at 37° C., the activation was stopped by adding 1 mmol/l phenylmethylsulfonyl fluoride (PMSF) and incubating for a further 10 minutes. The total volume of the mixture was 210 μl.
The test substance was added in the stated concentration (see table). […] The reaction was stopped after 30 minutes by adding 10 mmol/l EDTA. The total-volume of the mixture was 320 μl . The parameters measured were the fluorescence intensities at […]. In order to take account of the possible intrinsic fluorescence of the test substances, the fluorescence intensities from parallel measurements without substrate were subtracted from the measurements with substrate. All the steps took place at 20° C.

interleukin-1β = experiment: Inhibition of release of interleukin-1β from human mononuclear cells; type: cell-based; details: 10 .parallel.mol/l (so in the source), IL-1β, LPS-stimulated, 20 to 22 hours
Procedure: Obtaining mononuclear cells from human blood: 10 ml of human blood stabilized with 1 ml of 3.8 percent sodium citrate solution were diluted with 10 ml of PM16 (Serra, Heidelberg), and an underlayer of 15 ml of Lymphoprep (Dr. Molter GmbH, Heidelberg) was introduced. The samples were centrifuged at 400 x g (Minifuge 2 Heraeus, Osterode) at room temperature for 40 minutes. The mononuclear cells were visible as a white ring at the Lymphoprep/plasma boundary. This ring was cautiously removed with a syringe, diluted with the same volume of PM16 and centrifuged at 400 x g for 10 minutes. The precipitate was washed with ^~ 10 ml of RPMI1640 (+300 mg/I L-glutamine, Gibco, Eggenstein). After the cells had been suspended in ^~ 1 ml of RPMI1640 (+300 mg/I L-glutamine, +25 mM HEPES, +100 μg/ml streptomycin, +100 μg/ml penicillin), the cell density was determined with a JT Coulter Counter (Coulter Diagnostics) and adjusted to 5.10^6 /ml. 90% of the resulting cells were lymphocytes and 10% were monocytes.
Inhibition of release of interleukin-1β: 230 μl of mononuclear cells were incubated with 10 μl of test substance (10 μM in dimethyl sulfoxide (DMSO)/water=1/10) and 10 μl of a lipopolysaccharide solution (500 μg dissolved in 1 ml of DMSO and diluted 1/10 with water before starting the test, from Salmonella abortus equi, (Sigma, Deisenhofen) at 37° C., 5% CO2 for 20 to 22 hours. The samples were cooled to 0° C. in an ice bath and centrifuged in a Sigma centrifuge (2 minutes; 2000 revolutions per minute (rpm)). Aliquots of the supernatant were determined using a commercially available ELISA 5(Biermann, Bad Nauheim).
All active substances were tested at a concentration of 10 .parallel.mol/l. IL-1β release was tested in each case.

[6] = tested on: isolated guinea pig trachea; experiment: Antagonism of calcium ionophore A23187-induced contraction of the isolated guinea pig trachea; details: Cavia porcellus; agonist Ca ionophore A23187; read-out: Anticontractile effect (trachea), concentration range needed to bring about a dilatation corresponding to the ED50 range
Description: as §4
c) Calcium ionophore A23187 (Calbiochem, Bad Soden) brings about, due to increased uptake of calcium ions, an activation of all calcium-dependent signal cascades in the cell.
as §5, §6, §7, §8

SMILES	IC50 [1]	IC50 [2]	Inhibition of MMP, Inhibition (%) (matrix metalloproteases; 30 μM)	Inhibition of MMP, Inhibition (%) (matrix metalloproteases; 100 μM)	inhibition at 10 µM (interleukin-1β)	also measured
CCOC(=O)C(Cc1ccc(OC(C)=O)c(OC(C)=O)c1)P(=O)(OCC)OCC (racemic) [Compound 61, Ethyl 3-(3,4-diacetoxyphenyl)-2-(diethoxyphosphinyl) propionate (rac.)]	~3 µg/mL (≈ 6.97 µM)	> 10 µg/mL	–	–	–	–
CCCCCCCCCCCCOc1cc(C=C(C#N)P(=O)(OCC)OCC)ccc1OC [Compound 1]	1 to 3 µg/mL (≈ 2.09 to 6.26 µM)	> 10 µg/mL	–	–	–	–
CCOP(=O)(OCC)C(C#N)=Cc1ccc(OC)c(OCc2ccc(CBr)cc2)c1 [Compound 4]	1 to 3 µg/mL (≈ 2.02 to 6.07 µM)	3 to 6 µg/mL (≈ 6.07 to 12.1 µM)	–	–	–	–
CCOP(=O)(OCC)C(C#N)Cc1ccc(OCc2ccccc2)c(OCc2ccccc2)c1 (stereo not shown) [Compound 11]	6 to 10 µg/mL (≈ 12.5 to 20.9 µM)	–	–	–	–	EC50 [3]: > 10 µg/mL; EC50 [4]: > 10 µg/mL; EC50 [5]: 10 to 30 µg/mL (≈ 20.9 to 62.6 µM)
COc1ccc(C=C(C(=O)OC(C)C)P(=O)(OC)OC)cc1OCc1ccccc1 [Compound 14]	–	–	19%	50%	–	–
COc1ccc(C=C(C(=O)OC(C)C)P(=O)(OC)OC)cc1OC1CCCC1 [Compound 21]	–	–	19%	51%	–	–
COP(=O)(OC)C(Cc1ccc(OCc2ccccc2)c(OCc2ccccc2)c1)C(=O)OC(C)C (stereo not shown) [Compound 25]	–	–	24%	–	–	–
COc1ccc(C=C(C(=O)OC(C)C)P(=O)(OC)OC)cc1O [Compound 26, Isopropyl 2-(dimethoxyphosphinyl)-3-(3-hydroxy-4-methoxy-phenyl)propenoate]	–	–	–	51%	59%	Inhibition of MMP, Inhibition (%) (matrix metalloproteases; 10 μM): 15%
COP(=O)(OC)C(=Cc1ccc(OCc2ccccc2)c(OCc2ccccc2)c1)C(=O)OC(C)C [Compound 27]	–	–	24%	48%	99%	–
COc1cc(C=C(C(=O)OC(C)C)P(=O)(OC)OC)cc(OC)c1 [Compound 28]	–	–	–	9%	–	–
CCOP(=O)(OCC)C(C#N)=Cc1cc(OC)ccc1OC [Compound 30]	1 to 3 µg/mL (≈ 3.07 to 9.22 µM)	~10 µg/mL (≈ 30.7 µM)	–	–	–	EC50 [3]: 6 to 10 µg/mL (≈ 18.4 to 30.7 µM); EC50 [4]: > 10 µg/mL; EC50 [5]: 10 to 30 µg/mL (≈ 30.7 to 92.2 µM); EC50 [6]: 3 to 6 µg/mL (≈ 9.22 to 18.4 µM)
COc1cc(C=C(C(=O)OC(C)C)P(=O)(OC)OC)cc(OC)c1OC [Compound 31]	–	–	12%	35%	97%	Inhibition of MMP, Inhibition (%) (matrix metalloproteases; 10 μM): 8%
COc1ccc(C=C(C(=O)OC(C)C)P(=O)(OC)OC)c(OC)c1 [Compound 32]	–	–	22%	52%	80%	Inhibition of MMP, Inhibition (%) (matrix metalloproteases; 10 μM): 12%
CCOP(=O)(OCC)C(C#N)Cc1ccc(OC)c(OC)c1 (stereo not shown) [Compound 34, 2-(diethoxyphosphinyl)-3-(3,4-dimethoxy-phenyl)propiononitrile]	–	–	–	–	–	EC50 [3]: > 10 µg/mL; EC50 [4]: > 10 µg/mL; EC50 [5]: 1 to 10 µg/mL (≈ 3.06 to 30.6 µM)
COc1cc(OC)c(OC)cc1C=C(C(=O)OC(C)C)P(=O)(OC)OC [Compound 35]	–	–	21%	52%	83%	–
COc1cc(CC(C(=O)OC(C)C)P(=O)(OC)OC)cc(OC)c1OC (stereo not shown) [Compound 36]	–	–	–	–	15%	–
COc1ccc(C=C(C(=O)OC(C)C)P(=O)(OC)OC)cc1OC [Compound 39]	–	~10 µg/mL (≈ 27.9 µM)	19%	47%	63%	Inhibition of MMP, Inhibition (%) (matrix metalloproteases; 10 μM): 16%
COc1ccc(CC(C(=O)OC(C)C)P(=O)(OC)OC)cc1OC (stereo not shown) [Compound 41]	1 to 3 µg/mL (≈ 2.78 to 8.33 µM)	> 10 µg/mL	–	–	11%	–
COP(=O)(OC)C(=Cc1ccc2c(c1)OCO2)C(=O)OC(C)C [Compound 42]	3 to 6 µg/mL (≈ 8.76 to 17.5 µM)	> 10 µg/mL	–	–	77%	–
CCOP(=O)(OCC)C(C#N)=Cc1ccc(OC)cc1OC [Compound 44]	–	–	–	–	–	EC50 [3]: ~6 µg/mL (≈ 18.4 µM); EC50 [4]: > 10 µg/mL; EC50 [5]: 10 to 30 µg/mL (≈ 30.7 to 92.2 µM)
CCOP(=O)(OCC)C(Cc1ccc(OS(C)(=O)=O)c(OS(C)(=O)=O)c1)C(=O)OC(C)C (stereo not shown) [Compound 46]	1 to 3 µg/mL (≈ 1.94 to 5.81 µM)	~10 µg/mL (≈ 19.4 µM)	–	–	–	–
CCOP(=O)(OCC)C(=Cc1c(OC)cccc1OC)C(=O)OC(C)C [Compound 48]	–	–	9%	26%	–	Inhibition of MMP, Inhibition (%) (matrix metalloproteases; 10 μM): 7%
CCOP(=O)(OCC)C(=Cc1ccc(OC(C)=O)c(OC(C)=O)c1)C(=O)OC [Compound 49]	–	–	8%	28%	–	–
COc1ccc(C=C(C(=O)OC(C)C)P(=O)(O)O)cc1OC [Compound 50]	–	–	–	14%	–	–
CC(C)OC(=O)C(=Cc1ccc(OCc2ccccc2)c(OCc2ccccc2)c1)P(=O)(O)O [Compound 51, Ammonium hydrogen 2-(3,4-dibenzyloxybenzylidene)-isopropoxycarbonylmethanephosphonate]	–	–	–	14%	–	–
CCOP(=O)(OCC)C(C#N)=Cc1ccc(OC(C)=O)c(OC(C)=O)c1 [Compound 56, 3-(3,4-Diacetoxyphenyl)-2-(diethoxyphosphinyl) acrylonitrile]	1 to 3 µg/mL (≈ 2.62 to 7.87 µM)	3 to 6 µg/mL (≈ 7.87 to 15.7 µM)	–	–	–	–
CCOP(=O)(OCC)C(=Cc1ccc(OS(C)(=O)=O)c(OS(C)(=O)=O)c1)C(=O)OC(C)C [Compound 63]	–	–	–	–	92%	–
CCOP(=O)(OCC)C(C#N)=Cc1ccc2c(c1)OCCO2 [Compound 70]	–	~6 µg/mL (≈ 18.6 µM)	–	–	–	–

From patent publication US5627173A, “Phosphonoacetic acid derivatives and their use for treating degenerative joint disorders” (Hoechst Aktiengesellschaft, priority 1995, dated 1997)
